# Measured values from patent publication US10383837B2, “Compositions and methods for modulating metabolic pathways” (NuSirt Sciences, Inc., priority 2011, dated 2019).
# Assays:
# [1] = test system: Adipocytes (3T3-L1); assay: Fatty acid oxidation by 3H-palmitate in 3T3-L1 adipocytes; assay type: cell-based; conditions: 4 hours, low (5 mM) glucose, resveratrol 200 nM, HMB 5 uM, leucine 0.5 mM
# Protocol: High glucose medium reduced fatty acid oxidation by 46% (p<0.05).
# Fatty acid oxidation was measured using ^3H-labeled palmitate oxidation, with the ^3H label trapped as water as a result of the fat oxidation. The ^3H was then measured via scintillation counter.
# [2] = test system: myotubes (C2C12); assay: Fatty acid oxidation, palmitate-induced O2 consumption (Seahorse XF24), myotubes; assay type: cell-based; conditions: 24 hours treatment, leucine 0.5 mM, HMB 5 μM, resveratrol 200 nM, partner at its no-effect concentration, % change from control
# [3] = test system: UCP1; assay: UCP1 mRNA expression in subcutaneous adipose tissue of diet-induced obese mice; assay type: in vivo, c57/BL6 mice; conditions: six weeks, resveratrol 12.5 mg/kg diet, leucine 2.42%
# Protocol: Expression of 18S, Sirt1, Sirt3, PGC1-α, cytochrome c oxidase subunit VIIc1 (COX 7), mitochondrial NADH dehydrogenase, nuclear respiratory factor 1 (NRF1), uncoupling protein (UCP2 (adipocyte)/UCP3 (myocyte), p53, AMPK, Akt/PKB, and GLUT4 is measured via quantitative real-time PCR using an ABI 7300 Real-Time PCR system (Applied Biosystems, Branchburg, N.J.) with a TaqMan® core reagent kit. All primers and probe sets can be obtained from Applied Biosystems TaqMan® Assays-on-Demand and utilized accordingly to manufacturer's instructions. Pooled RNA from each cell type are serial-diluted in the range of 0.0156-50 ng and were used to establish a standard curve; total RNA for each unknown sample is also diluted in this range. […] Expression of each gene of interest is then normalized using the corresponding 18S quantitation.
# Six week old male c57/BL6 mice were fed a high-fat diet with fat increased to 45% of energy (Research Diets D12451) for 6 weeks to induce obesity. […] RNA was extracted from the subcutaneous adipose tissue, and gene expression was evaluated according to methods described in Example 4. […] Plasma levels of irisin were also evaluated, the results of which are described in Example 8 and illustrated in FIG. 70. […] Protein expression may also be determined by Western blot or ELISA, as in Example 8. […]
# [4] = biological target: T1, SIRT1 (Mus musculus, UniProt Q923E4); assay: Sirt1 activity of treated cells (SIRT1 Fluorimetric Drug Discovery Kit), Example 5; assay type: cell-based; set-up: endogenous in cells; host or cells: 3T3-L1 adipocytes and C2C12 myotubes; conditions: leucine 0.5 mM, HMB 5 μM, resveratrol 200 nM; summary in Example 5, system not stated
# T1 sequence (Q923E4 1-737): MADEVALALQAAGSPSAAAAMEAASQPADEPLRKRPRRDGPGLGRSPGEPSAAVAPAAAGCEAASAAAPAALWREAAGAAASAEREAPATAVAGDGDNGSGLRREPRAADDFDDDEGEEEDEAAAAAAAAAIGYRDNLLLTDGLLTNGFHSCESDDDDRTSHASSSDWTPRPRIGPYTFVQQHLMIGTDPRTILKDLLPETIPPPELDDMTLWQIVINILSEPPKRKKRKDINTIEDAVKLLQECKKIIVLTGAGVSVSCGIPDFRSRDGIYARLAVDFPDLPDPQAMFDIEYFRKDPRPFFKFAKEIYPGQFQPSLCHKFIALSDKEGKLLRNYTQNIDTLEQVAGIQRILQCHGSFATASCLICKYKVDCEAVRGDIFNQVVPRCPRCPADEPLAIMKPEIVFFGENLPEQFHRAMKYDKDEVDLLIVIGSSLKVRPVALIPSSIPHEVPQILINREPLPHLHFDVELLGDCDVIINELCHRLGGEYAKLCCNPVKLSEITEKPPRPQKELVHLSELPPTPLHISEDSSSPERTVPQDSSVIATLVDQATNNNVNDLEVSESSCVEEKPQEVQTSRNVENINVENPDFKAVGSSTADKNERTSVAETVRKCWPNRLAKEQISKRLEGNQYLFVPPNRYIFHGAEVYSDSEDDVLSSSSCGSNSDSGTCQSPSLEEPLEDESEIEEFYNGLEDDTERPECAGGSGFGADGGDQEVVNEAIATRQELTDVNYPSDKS
# Protocol: All compounds were tested for potential to independently or synergistically modulate sirtuin signaling either by direct stimulation or indirect via upstream signaling via AMPK. A key outcome of Sirt1 signaling is stimulation of PGC1-α and subsequent stimulation of mitochondrial biogenesis and fatty acid oxidation. Accordingly, fatty acid oxidation, measured as palmitate-induced oxygen consumption as described below, was utilized as a sensitive first level of screening for aerobic mitochondrial metabolism. A dose-response curve for fatty acid oxidation was established for each compound studied, and a “sub-therapeutic dose” was defined as the highest dose that exerted no effect in this system. […] Following assessment of fatty acid oxidation, Sirt1 activity, AMPK activity, mitochondrial biogenesis and glucose utilization (measured as glucose-induced extracellular acidification in the absence of fatty acids in the media) were assessed for lead combinations and appropriate controls. SIRT1 activity was measured by using the SIRT1 Fluorimetric Drug Discovery Kit (BML-AK555, ENZO Life Sciences International, Inc. PA, USA). […]
# [5] = biological target: T1, SIRT1; assay: Adipose tissue Sirt1 activity in diet-induced obese mice; assay type: in vivo, c57/BL6 mice; set-up: from tissue; host or cells: adipose tissue of diet-induced obese c57/BL6 mice; conditions: 6 weeks
compound,measurement,setting,value
"Oc1ccc(/C=C/c2cc(O)cc(O)c2)cc1 [resveratrol, 3,5,4′-Trihydroxy-trans-stilbene]","increase in fatty acid oxidation, low glucose",[1],no independent effect
same,increase in myotube fatty acid oxidation,[2],neither component exerted an independent effect
same,increase in UCP1 expression in white subcutaneous adipose tissue,[3],no independent effect
same,stimulation of Sirt1 activity,[4],no effect
same,adipose tissue Sirt1 activity,[5]; high dose resveratrol,non-significant trend towards an increase
same,adipose tissue Sirt1 activity,"[5]; low dose of resveratrol, HMB, leucine diets",Neither resveratrol nor HMB exerted significant independent effects
